{"source": "patent US20250144094A1", "about": "(Erasca, Inc., priority 2021, published 2025)", "molecular_target": "Recombinant human ULK1 (1-649) (Homo sapiens (Human), UniProt O75385)", "sequence (O75385 1-649)": "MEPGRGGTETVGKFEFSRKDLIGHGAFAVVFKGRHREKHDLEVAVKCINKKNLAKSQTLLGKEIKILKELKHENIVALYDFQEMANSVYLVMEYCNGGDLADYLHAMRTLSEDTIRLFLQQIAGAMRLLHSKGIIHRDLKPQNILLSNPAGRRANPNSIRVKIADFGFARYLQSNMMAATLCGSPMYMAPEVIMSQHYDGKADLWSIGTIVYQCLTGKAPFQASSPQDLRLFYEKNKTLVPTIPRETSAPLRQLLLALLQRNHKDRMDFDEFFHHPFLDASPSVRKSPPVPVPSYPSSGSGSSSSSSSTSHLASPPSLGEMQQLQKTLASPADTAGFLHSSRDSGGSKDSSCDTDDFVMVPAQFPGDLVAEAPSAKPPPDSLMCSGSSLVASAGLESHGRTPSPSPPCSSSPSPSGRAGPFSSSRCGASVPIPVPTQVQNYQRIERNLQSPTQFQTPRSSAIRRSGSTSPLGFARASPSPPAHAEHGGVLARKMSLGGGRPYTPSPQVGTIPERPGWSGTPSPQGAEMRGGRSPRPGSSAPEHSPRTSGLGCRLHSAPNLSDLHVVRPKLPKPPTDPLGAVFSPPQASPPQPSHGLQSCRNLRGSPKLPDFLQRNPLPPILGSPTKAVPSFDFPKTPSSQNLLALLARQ", "assay": "ULK1 ADP Glo kinase activity assay, new method (ULKtide peptide substrate)", "details": "25° C., 40 minutes, read-out: ULK1 biochemical IC50", "method_in_brief": "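Kinase activity was read as ADP production (ADP-Glo, luminescence 30 min after detection reagent) following a 40-min, 25 °C reaction of Sf9-expressed GST-ULK1 (1-649) with ULKtide substrate and ATP. Compounds ran as 12-point series starting at 10 μM; four-parameter curve fitting versus DMSO wells gave IC50.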", "data": [{"smiles": "CN1CCC(c2ccc(Nc3ncc(C(F)(F)F)c(-c4cc5c(s4)C(=O)N(C4CC4)CCS5(=O)=O)n3)c(C3CC3)c2)CC1", "note": "[Example 252, 4-cyclopropyl-7-(2-((2-cyclopropyl-4-(1-methylpiperidin-4-yl)phenyl)amino)-5-(trifluoromethyl)pyrimidin-4-yl)-3,4-dihydrothieno[2,3-f][1,4]thiazepin-5(2H)-one 1,1-dioxide]", "values": [{"measurement": "IC50", "result": "≤ 5", "unit": "nM"}]}, {"smiles": "CCN1CCC(c2ccc(Nc3ncc(C(F)(F)F)c(-c4cc5c(s4)C(=O)N(C4CC4)CCS5(=O)=O)n3)c(C3CC3)c2)CC1", "note": "[Example 253, 4-cyclopropyl-7-(2-((2-cyclopropyl-4-(1-ethylpiperidin-4-yl)phenyl)amino)-5-(trifluoromethyl)pyrimidin-4-yl)-3,4-dihydrothieno[2,3-f][1,4]thiazepin-5(2H)-one 1,1-dioxide]", "values": [{"measurement": "IC50", "result": "≤ 5", "unit": "nM"}]}, {"smiles": "O=C1c2sc(-c3nc(Nc4ccc(C5CCN(CC6COC6)CC5)cc4C4CC4)ncc3C(F)(F)F)cc2S(=O)(=O)CCN1C1CC1", "note": "[Example 254, 4-cyclopropyl-7-(2-((2-cyclopropyl-4-(1-(oxetan-3-ylmethyl)piperidin-4-yl)phenyl)amino)-5-(trifluoromethyl)pyrimidin-4-yl)-3,4-dihydrothieno[2,3-f][1,4]thiazepin-5(2H)-one 1,1-dioxide]", "values": [{"measurement": "IC50", "result": "≤ 5", "unit": "nM"}]}, {"smiles": "CCN1CCN(c2ccc(Nc3ncc(C(F)(F)F)c(-c4cc5c(s4)C(=O)N(C4CC4)CCS5(=O)=O)n3)c(C3CC3)c2)CC1", "note": "[Example 255, 4-cyclopropyl-7-(2-((2-cyclopropyl-4-(4-ethylpiperazin-1-yl)phenyl)amino)-5-(trifluoromethyl)pyrimidin-4-yl)-3,4-dihydrothieno[2,3-f][1,4]thiazepin-5(2H)-one 1,1-dioxide]", "values": [{"measurement": "IC50", "result": "≤ 5", "unit": "nM"}]}, {"smiles": "O=C1c2sc(-c3nc(Nc4cc5c(cc4C4CC4)CN(CC4CC4)CC5)ncc3C(F)(F)F)cc2S(=O)(=O)CCN1C1COC1", "note": "[Example 256, 7-(2-((7-cyclopropyl-2-(cyclopropylmethyl)-1,2,3,4-tetrahydroisoquinolin-6-yl)amino)-5-(trifluoromethyl)pyrimidin-4-yl)-4-(oxetan-3-yl)-3,4-dihydrothieno[2,3-f][1,4]thiazepin-5(2H)-one 1,1-dioxide]", "values": [{"measurement": "IC50", "result": "≤ 5", "unit": "nM"}]}, {"smiles": "O=C1c2sc(-c3nc(Nc4cc5c(cc4C4CC4)CN(CC4COC4)CC5)ncc3C(F)(F)F)cc2S(=O)(=O)CCN1C1COC1", "note": "[Example 257, 7-(2-((7-cyclopropyl-2-(oxetan-3-ylmethyl)-1,2,3,4-tetrahydroisoquinolin-6-yl)amino)-5-(trifluoromethyl)pyrimidin-4-yl)-4-(oxetan-3-yl)-3,4-dihydrothieno[2,3-f][1,4]thiazepin-5(2H)-one 1,1-dioxide]", "values": [{"measurement": "IC50", "result": "≤ 5", "unit": "nM"}]}, {"smiles": "CCc1cc2c(cc1Nc1ncc(C(F)(F)F)c(-c3cc4c(s3)C(=O)N(CC(F)(F)F)CCS4(=O)=O)n1)CNCC2", "note": "[Example 258, 7-(2-((6-ethyl-1,2,3,4-tetrahydroisoquinolin-7-yl)amino)-5-(trifluoromethyl)pyrimidin-4-yl)-4-(2,2,2-trifluoroethyl)-3,4-dihydrothieno[2,3-f][1,4]thiazepin-5(2H)-one 1,1-dioxide]", "values": [{"measurement": "IC50", "result": "≤ 5", "unit": "nM"}]}, {"smiles": "Cc1cnc(Nc2cc3c(cc2Cl)CNCC3)nc1-c1cc2c(s1)C(=O)N(C)CCS2(=O)=O", "note": "[Example 259, 7-(2-((7-chloro-1,2,3,4-tetrahydroisoquinolin-6-yl)amino)-5-methylpyrimidin-4-yl)-4-methyl-3,4-dihydrothieno[2,3-f][1,4]thiazepin-5(2H)-one 1,1-dioxide]", "values": [{"measurement": "IC50", "result": "≤ 5", "unit": "nM"}]}, {"smiles": "Cc1cnc(Nc2cc3c(cc2C2CC2)CNCC3)nc1-c1cc2c(s1)C(=O)N(C1CC1)CCS2(=O)=O", "note": "[Example 260, 4-cyclopropyl-7-(2-((7-cyclopropyl-1,2,3,4-tetrahydroisoquinolin-6-yl)amino)-5-methylpyrimidin-4-yl)-3,4-dihydrothieno[2,3-f][1,4]thiazepin-5(2H)-one 1,1-dioxide]", "values": [{"measurement": "IC50", "result": "≤ 5", "unit": "nM"}]}, {"smiles": "O=C1c2sc(-c3nc(Nc4cc5c(cc4C4CC4)CNCC5)ncc3C3CC3)cc2S(=O)(=O)CCN1C1CC1", "note": "[Example 261, 4-cyclopropyl-7-(5-cyclopropyl-2-((7-cyclopropyl-1,2,3,4-tetrahydroisoquinolin-6-yl)amino)pyrimidin-4-yl)-3,4-dihydrothieno[2,3-f][1,4]thiazepin-5(2H)-one 1,1-dioxide]", "values": [{"measurement": "IC50", "result": "≤ 5", "unit": "nM"}]}, {"smiles": "CCc1cc2c(cc1Nc1ncc(C(F)(F)F)c(-c3cc4c(s3)C(=O)N(C3COC3)CCS4(=O)=O)n1)CNCC2", "note": "[Example 262, 7-(2-((6-ethyl-1,2,3,4-tetrahydroisoquinolin-7-yl)amino)-5-(trifluoromethyl)pyrimidin-4-yl)-4-(oxetan-3-yl)-3,4-dihydrothieno[2,3-f][1,4]thiazepin-5(2H)-one 1,1-dioxide]", "values": [{"measurement": "IC50", "result": "≤ 5", "unit": "nM"}]}, {"smiles": "CC(C)c1cc2c(cc1Nc1ncc(C(F)(F)F)c(-c3cc4c(s3)C(=O)N(C3CC3)CCS4(=O)=O)n1)CCNC2", "note": "[Example 263, 4-cyclopropyl-7-(2-((7-isopropyl-1,2,3,4-tetrahydroisoquinolin-6-yl)amino)-5-(trifluoromethyl)pyrimidin-4-yl)-3,4-dihydrothieno[2,3-f][1,4]thiazepin-5(2H)-one 1,1-dioxide]", "values": [{"measurement": "IC50", "result": "≤ 5", "unit": "nM"}]}, {"smiles": "CCc1cc(N2CCNCC2)ccc1Nc1ncc(C(F)(F)F)c(-c2cc3c(s2)C(=O)N(C2CC2)CCS3(=O)=O)n1", "note": "[Example 264, 4-cyclopropyl-7-(2-((2-ethyl-4-(piperazin-1-yl)phenyl)amino)-5-(trifluoromethyl)pyrimidin-4-yl)-3,4-dihydrothieno[2,3-f][1,4]thiazepin-5(2H)-one 1,1-dioxide]", "values": [{"measurement": "IC50", "result": "≤ 5", "unit": "nM"}]}, {"smiles": "CCc1cc(N2CCN(CC3CC3)CC2)ccc1Nc1ncc(C(F)(F)F)c(-c2cc3c(s2)C(=O)N(C2CC2)CCS3(=O)=O)n1", "note": "[Example 265, 4-cyclopropyl-7-(2-((4-(4-(cyclopropylmethyl)piperazin-1-yl)-2-ethylphenyl)amino)-5-(trifluoromethyl)pyrimidin-4-yl)-3,4-dihydrothieno[2,3-f][1,4]thiazepin-5(2H)-one 1,1-dioxide]", "values": [{"measurement": "IC50", "result": "≤ 5", "unit": "nM"}]}, {"smiles": "CCc1cc(N2CCN(CC3COC3)CC2)ccc1Nc1ncc(C(F)(F)F)c(-c2cc3c(s2)C(=O)N(C2CC2)CCS3(=O)=O)n1", "note": "[Example 266, 4-cyclopropyl-7-(2-((2-ethyl-4-(4-(oxetan-3-ylmethyl)piperazin-1-yl)phenyl)amino)-5-(trifluoromethyl)pyrimidin-4-yl)-3,4-dihydrothieno[2,3-f][1,4]thiazepin-5(2H)-one 1,1-dioxide]", "values": [{"measurement": "IC50", "result": "≤ 5", "unit": "nM"}]}, {"smiles": "CCN1CCc2cc(Nc3ncc(C(F)(F)F)c(-c4cc5c(s4)C(=O)N(C4CC4)CCS5(=O)=O)n3)c(C(C)C)cc2C1", "note": "[Example 267, 4-cyclopropyl-7-(2-((2-ethyl-7-isopropyl-1,2,3,4-tetrahydroisoquinolin-6-yl)amino)-5-(trifluoromethyl)pyrimidin-4-yl)-3,4-dihydrothieno[2,3-f][1,4]thiazepin-5(2H)-one 1,1-dioxide]", "values": [{"measurement": "IC50", "result": "≤ 5", "unit": "nM"}]}, {"smiles": "CC(C)c1cc2c(cc1Nc1ncc(C(F)(F)F)c(-c3cc4c(s3)C(=O)N(C3CC3)CCS4(=O)=O)n1)CCN(CC1CC1)C2", "note": "[Example 268, 4-cyclopropyl-7-(2-((2-(cyclopropylmethyl)-7-isopropyl-1,2,3,4-tetrahydroisoquinolin-6-yl)amino)-5-(trifluoromethyl)pyrimidin-4-yl)-3,4-dihydrothieno[2,3-f][1,4]thiazepin-5(2H)-one 1,1-dioxide]", "values": [{"measurement": "IC50", "result": "≤ 5", "unit": "nM"}]}, {"smiles": "CC(C)c1cc2c(cc1Nc1ncc(C(F)(F)F)c(-c3cc4c(s3)C(=O)N(C3CC3)CCS4(=O)=O)n1)CCN(CC1COC1)C2", "note": "[Example 269, 4-cyclopropyl-7-(2-((7-isopropyl-2-(oxetan-3-ylmethyl)-1,2,3,4-tetrahydroisoquinolin-6-yl)amino)-5-(trifluoromethyl)pyrimidin-4-yl)-3,4-dihydrothieno[2,3-f][1,4]thiazepin-5(2H)-one 1,1-dioxide]", "values": [{"measurement": "IC50", "result": "≤ 5", "unit": "nM"}]}, {"smiles": "O=C1c2sc(-c3nc(Nc4cc5c(cc4C4CC4)CCNC5)ncc3C(F)(F)F)cc2S(=O)(=O)CCN1C1COC1", "note": "[Example 270, 7-(2-((6-cyclopropyl-1,2,3,4-tetrahydroisoquinolin-7-yl)amino)-5-(trifluoromethyl)pyrimidin-4-yl)-4-(oxetan-3-yl)-3,4-dihydrothieno[2,3-f][1,4]thiazepin-5(2H)-one 1,1-dioxide]", "values": [{"measurement": "IC50", "result": "≤ 5", "unit": "nM"}]}, {"smiles": "CCc1cc(N2CCN(CC)CC2)ccc1Nc1ncc(C(F)(F)F)c(-c2cc3c(s2)C(=O)N(C2CC2)CCS3(=O)=O)n1", "note": "[Example 271, 4-cyclopropyl-7-(2-((2-ethyl-4-(4-ethylpiperazin-1-yl)phenyl)amino)-5-(trifluoromethyl)pyrimidin-4-yl)-3,4-dihydrothieno[2,3-f][1,4]thiazepin-5(2H)-one 1,1-dioxide]", "values": [{"measurement": "IC50", "result": "≤ 5", "unit": "nM"}]}, {"smiles": "CCc1cc(N2CCN(C(C)C)CC2)ccc1Nc1ncc(C(F)(F)F)c(-c2cc3c(s2)C(=O)N(C2CC2)CCS3(=O)=O)n1", "note": "[Example 272, 4-cyclopropyl-7-(2-((2-ethyl-4-(4-isopropylpiperazin-1-yl)phenyl)amino)-5-(trifluoromethyl)pyrimidin-4-yl)-3,4-dihydrothieno[2,3-f][1,4]thiazepin-5(2H)-one 1,1-dioxide]", "values": [{"measurement": "IC50", "result": "≤ 5", "unit": "nM"}]}, {"smiles": "O=C1c2sc(-c3nc(Nc4cc5c(cc4OC(F)(F)F)CNCC5)ncc3C(F)(F)F)cc2S(=O)(=O)CCN1C1CC1", "note": "[Example 273, 4-cyclopropyl-7-(2-((7-(trifluoromethoxy)-1,2,3,4-tetrahydroisoquinolin-6-yl)amino)-5-(trifluoromethyl)pyrimidin-4-yl)-3,4-dihydrothieno[2,3-f][1,4]thiazepin-5(2H)-one 1,1-dioxide]", "values": [{"measurement": "IC50", "result": "≤ 5", "unit": "nM"}]}, {"smiles": "CCc1cc2c(cc1Nc1ncc(C(F)(F)F)c(-c3cc4c(s3)C(=O)N(C3COC3)CCS4(=O)=O)n1)CCN(CC1CC1)C2", "note": "[Example 274, 7-(2-((2-(cyclopropylmethyl)-7-ethyl-1,2,3,4-tetrahydroisoquinolin-6-yl)amino)-5-(trifluoromethyl)pyrimidin-4-yl)-4-(oxetan-3-yl)-3,4-dihydrothieno[2,3-f][1,4]thiazepin-5(2H)-one 1,1-dioxide]", "values": [{"measurement": "IC50", "result": "≤ 5", "unit": "nM"}]}]}
